Test results reported in ChEMBL document CHEMBL1201862, “PubChem BioAssay data set” (2004).
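Where inhibition never reached the appropriate level, the endpoint shown equals the highest concentration tested. Otherwise, values were interpolated linearly from a five-concentration, 48-hour dose response in 96-well plates. Abbreviation: GI50, concentration required for 50% inhibition of growth.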 The source made the active and inactive calls. Rule as the data show it: active = GI50 up to about 1.1 µM and inactive = higher.

Key:
Experiment in all cases: growth of human tumour cells (NCI), 48 h
[1] = test system: OVCAR-3
[2] = test system: LOX IMVI
[3] = test system: MOLT-4
[4] = test system: CCRF-CEM
[5] = test system: SK-MEL-5
[6] = test system: NCI-H522
[7] = test system: NCI-H460
[8] = test system: MDA-N
[9] = test system: MDA-MB-231
[10] = test system: A498
[11] = test system: K562
[12] = test system: UACC-62
[13] = test system: MDA-MB-435
[14] = test system: HCT-15
[15] = test system: OVCAR-5
[16] = test system: Malme-3M
[17] = test system: OVCAR-4
[18] = test system: HOP-62
[19] = test system: HOP-92
[20] = test system: HCT-116
[21] = test system: PC-3
[22] = test system: SF-539
[23] = test system: COLO 205
[24] = test system: RPMI-8226
[25] = test system: OVCAR-8
[26] = test system: SF-268
[27] = test system: NCI-H226
[28] = test system: BT-549
[29] = test system: T47D
[30] = test system: CAKI-1
[31] = test system: RXF 393
[32] = test system: M14
[33] = test system: EKVX
[34] = test system: SR
[35] = test system: HCC 2998
[36] = test system: IGROV-1
[37] = test system: KM12
[38] = test system: U-251
[39] = test system: Hs-578T
[40] = test system: HT-29
[41] = test system: HL-60
[42] = test system: SK-MEL-2
[43] = test system: MCF7
[44] = test system: SK-OV-3
[45] = test system: SF-295
[46] = test system: ACHN
[47] = test system: UACC-257
[48] = test system: A549
[49] = test system: DU-145
[50] = test system: TK-10
[51] = test system: SNB-75
[52] = test system: UO-31
[53] = test system: 786-0
[54] = test system: SK-MEL-28
[55] = test system: NCI-H23
[56] = test system: SN12C
[57] = test system: SW-620
[58] = test system: NCI/ADR-RES
[59] = test system: SNB-19

Cc1c(C)c(C)c(-n2c(=O)n(C)c(=O)n2-c2cc(C(C)(C)C)cc(C(C)(C)C)c2O)c(C)c1C
GI50 [1]: 4.68 µM (inactive)
GI50 [2]: 13.6 µM (inactive)
GI50 [3]: 4.18 µM (inactive)
GI50 [4]: 8.13 µM (inactive)
GI50 [5]: 6.21 µM (inactive)
GI50 [6]: 4.54 µM (inactive)
GI50 [7]: 11.4 µM (inactive)
GI50 [8]: 10.5 µM (inactive)
GI50 [9]: 3.91 µM (inactive)
GI50 [10]: 13.1 µM (inactive)
GI50 [11]: 6.21 µM (inactive)
GI50 [12]: 11.1 µM (inactive)
GI50 [13]: 11.9 µM (inactive)
GI50 [14]: 8.43 µM
GI50 [15]: 13.3 µM (inactive)
GI50 [16]: 11.9 µM (inactive)
GI50 [17]: 7.28 µM (inactive)
GI50 [18]: 14.4 µM (inactive)
GI50 [19]: 5.5 µM (inactive)
GI50 [20]: 5.79 µM (inactive)
GI50 [21]: 3.03 µM (inactive)
GI50 [22]: 10.5 µM (inactive)
GI50 [23]: 7.19 µM (inactive)
GI50 [24]: 4.63 µM (inactive)
GI50 [25]: 10.4 µM (inactive)
GI50 [26]: 12.4 µM (inactive)
GI50 [27]: 8.32 µM (inactive)
GI50 [28]: 13.5 µM (inactive)
GI50 [29]: 4.89 µM (inactive)
GI50 [30]: 11.7 µM (inactive)
GI50 [31]: 2.97 µM (inactive)
GI50 [32]: 10.2 µM (inactive)
GI50 [33]: 10.5 µM (inactive)
GI50 [34]: 3.91 µM (inactive)
GI50 [35]: 9.93 µM (inactive)
GI50 [36]: 10.1 µM (inactive)
GI50 [37]: 11.8 µM (inactive)
GI50 [38]: 6.95 µM (inactive)
GI50 [39]: 10.4 µM (inactive)
GI50 [40]: 3.64 µM (inactive)
GI50 [41]: 3.04 µM (inactive)
GI50 [42]: 6.47 µM (inactive)
GI50 [43]: 4.06 µM (inactive)
GI50 [44]: 12.4 µM (inactive)
GI50 [45]: 8.99 µM (inactive)
GI50 [46]: 12.2 µM (inactive)
GI50 [47]: 9.66 µM (inactive)
GI50 [48]: 5.66 µM (inactive)
GI50 [49]: 12.7 µM (inactive)
GI50 [50]: 10.1 µM (inactive)
GI50 [51]: 4.14 µM (inactive)
GI50 [52]: 3.08 µM (inactive)
GI50 [53]: 10.4 µM (inactive)
GI50 [54]: 13.7 µM (inactive)
GI50 [55]: 7.91 µM (inactive)
GI50 [56]: 9.44 µM (inactive)
GI50 [57]: 13.6 µM (inactive)
GI50 [58]: 8.38 µM (inactive)
GI50 [59]: 5.74 µM (inactive)
